Assay [1] concerns hemocytes of a fly (Lucilia cuprina). As to the kind of experiment: Hemocyte aggregation assay. The format is cell-based. As to conditions: 10 nM test substance, incubated for about 20 minutes, L. cuprina larval hemocytes, microscopy (FIG. 2). As for the experimental part:
Preparation of Hemolymph for Use in Functional Analysis
Blood (hemolymph) was taken from the 3rd instar flies (Lucilia cuprina) after 24 to 36 hours from molting in an anti-coagulant solution (98 mM NaOH, 186 mM NaCl, 17 mM Na2 EDTA and 41 mM citric acid, pH 4.5). Hemolymph was obtained as sediment by centrifuging at 400 g for one minute, suspended in the anti-coagulation solution, incubated at 4° C. for 30 minutes, and subjected to centrifugal separation at 400 g for one minute to collect hemolymph. The hemolymph thus collected was resuspended in Ex-cell 400 medium (manufactured by JRH bioscience, USA)
Using hemolymph prepared above, an ability of a peptide according to the present invention for aggregating hemocytes was evaluated. 5 μl of a test substance (so as to obtain a final concentration of 10 nM) and 30 μl of a blood cell suspension solution were delivered to 96 wells of a culture plate so as to obtain a cell concentration of 1×10^4 cells/well. As the test substance, a peptide according to the present invention (a final concentration of 10 nM) or bovine serum albumin (a final concentration of 10 nM) as a control was used. The mixture was observed by an inverted phase-contrast microscope (Olympus IX-70) to detect hemocyte aggregation.

In the next assay the test system is High five cells. Nature of the assay: Cell proliferation assay ([3H] thymidine incorporation). The format is cell-based, Trichoplusia ni. Conditions: serum-free Grace's medium, test substance ~1,000 nM, cultured 32 hours (FIG. 3). The procedure:
Cultured insect cells of “High five” was purchased from Invitrogen (Holland) and maintained in Grace's medium containing 5% fetus bovine serum. The cells during the exponential growth period were used in the following treatment. After the cells were cultured in a culture solution containing only Grace's medium (with no fetus bovine serum) for 2 days, they were divided into two groups. To one group (novel cytokine group), a peptide according to the present invention was added as a test substance in an amount of ˜1,000 nM. To the other group (control group), bovine serum albumin (BSA) was added as a test substance in an amount of ˜1000 nM. Both groups were cultured for 32 hours in Grace's medium containing 0.5 μCi of [^3H] thymidine. Subsequently, Both groups of cells were washed three times with a phosphate buffered saline (8 mM Na2HPO4, 1.5 mM KH2PO4, 137 mM NaCl, 2.7 mM KCL, pH 7.2). Thereafter, 100 μl of 0.3 N NaOH was added to both groups of cells to lyse the cells. The lysed cells were subjected to the liquid scintillation counter (Aloka LSC-5100 manufactured by Aloka, Japan). In this way, the radioactive count of [^3H] thymidine, which had been incorporated in the cells of each group during culturing, was determined.
(Uptake of a labelled nucleoside into DNA is a usual measure of proliferation.)

The values below come from patent US20050165225A1, “Novel cytokine isolated from an insect” (priority 2003, published 2005).

Where no end group is shown, it is not given here.

Turning to “TILSAPSNCQQTDFKGRCL (cysteine pairing not given here) [19-residue peptide cytokine purified from hemolymph of Lucilia cuprina larvae]”, the hemocyte aggregation result in assay [1] was “hemocyte aggregation is observed”. Further, the “[^3H] thymidine incorporation” value in the assay with High five cells is “increased in a pepetide-concentration dependent manner”.

With “bovine serum albumin (BSA): bovine serum albumin used as a control test substance”, in assay [1], the hemocyte aggregation entry is on record as “scattered without causing aggregation”. Also, in the assay with High five cells, the “[^3H] thymidine incorporation” value is “not increased”.
